Measurements reported in PubChem BioAssay (NCI).
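1) Cells in 96-well plates. 2) Compound, 48 h, 5 concentrations. 3) Linear interpolation between surrounding doses. 4) Unreached endpoint = highest concentration. The concentration for 50% growth inhibition is given as GI50. Definition used: TGI = concentration required for complete inhibition of growth.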

Key:
Experiment in all cases: NCI tumour cell line growth inhibition, 48 h
NCI/ADR-RES ovarian = test system: NCI/ADR-RES ovarian
HCT-15 colon = test system: HCT-15 colon
A549 NSCLC = test system: A549 NSCLC
SF-268 CNS = test system: SF-268 CNS
KM12 colon = test system: KM12 colon
HOP-62 NSCLC = test system: HOP-62 NSCLC
ACHN renal = test system: ACHN renal
MDA-MB-435 = test system: MDA-MB-435
DU-145 prostate = test system: DU-145 prostate
UO-31 renal = test system: UO-31 renal
SK-OV-3 ovarian = test system: SK-OV-3 ovarian
SF-295 CNS = test system: SF-295 CNS
HS 578T breast = test system: HS 578T breast
EKVX NSCLC = test system: EKVX NSCLC
OVCAR-3 ovarian = test system: OVCAR-3 ovarian
OVCAR-5 ovarian = test system: OVCAR-5 ovarian
CCRF-CEM leukemia = test system: CCRF-CEM leukemia
A498 renal = test system: A498 renal
SK-MEL-5 melanoma = test system: SK-MEL-5 melanoma
NCI-H226 lung = test system: NCI-H226 lung

In the case of `COC(=O)c1ccc2c(c1)n(Cc1ccc3ccccc3c1)c[n+]2Cc1ccc2ccccc2c1`, the GI50 (NCI/ADR-RES ovarian) is reported as 24 µM, the TGI (NCI/ADR-RES ovarian) is reported as > 100 µM and the GI50 (HCT-15 colon) is reported as 4.48 µM. The TGI (HCT-15 colon) was 26.8 µM, the GI50 (A549 NSCLC) was 11.3 µM and the TGI (A549 NSCLC) was 36.8 µM. For the same compound, the GI50 (SF-268 CNS) was 1.5 µM, the TGI (SF-268 CNS) was 3.02 µM and the GI50 (KM12 colon) was 1.37 µM. The TGI (KM12 colon) was 2.83 µM, the GI50 (HOP-62 NSCLC) was 1.8 µM and the TGI (HOP-62 NSCLC) was 4.28 µM. The GI50 (ACHN renal) was 10.2 µM, the TGI (ACHN renal) was 29.8 µM and the GI50 (MDA-MB-435) was 1.33 µM. It also gave a TGI (MDA-MB-435) of 2.75 µM, a GI50 (DU-145 prostate) of 1.77 µM and a TGI (DU-145 prostate) of 3.52 µM. The GI50 (UO-31 renal) was 13 µM, the TGI (UO-31 renal) was 63.9 µM and the GI50 (SK-OV-3 ovarian) was 2.82 µM. The TGI (SK-OV-3 ovarian) was 13.4 µM, the GI50 (SF-295 CNS) was 1.86 µM and the TGI (SF-295 CNS) was 5.56 µM. For the same compound, the GI50 (HS 578T breast) was 1.76 µM, the TGI (HS 578T breast) was 4.65 µM and the GI50 (EKVX NSCLC) was 3.01 µM. The TGI (EKVX NSCLC) was 20.4 µM, the GI50 (OVCAR-3 ovarian) was 1.37 µM and the TGI (OVCAR-3 ovarian) was 2.78 µM. For the same compound, the GI50 (OVCAR-5 ovarian) was 2.12 µM, the TGI (OVCAR-5 ovarian) was 13.7 µM and the GI50 (CCRF-CEM leukemia) was 1.79 µM. It also gave a TGI (CCRF-CEM leukemia) of 4.46 µM, a GI50 (A498 renal) of 2.23 µM and a TGI (A498 renal) of 6.49 µM. The GI50 (SK-MEL-5 melanoma) was 1.46 µM, the TGI (SK-MEL-5 melanoma) was 2.78 µM and the GI50 (NCI-H226 lung) was 1.96 µM. It also gave a TGI (NCI-H226 lung) of 4.44 µM.
